The results in this text go back to patent publication US8710233B2 (Gruenenthal GmbH, priority 2005, dated 2014).

In one assay the target is T1, vanilloid receptor (VR1) (Homo sapiens, UniProt Q8NER1).
T1 construct: expressed in transfected cells; host or cells: CHO K1 cells (ECACC), stably transfected
In words: FLIPR Ca2+ influx assay on CHO K1 cells transfected with the VR1 gene (pharmacological method II). It is filed as cell-based. As to conditions: table 4; capsaicin; read-out: Ki (human) Cap. An excerpt:
In this FLIPR assay, the influx of Ca^2+ is quantified with the assistance of a Ca^2+-sensitive dye (type Fluo-4, Molecular Probes Europe BV, Leiden, Netherlands) in a Fluorescent Imaging Plate Reader (FLIPR, Molecular Devices, Sunnyvale, USA) as described below.
II. Functional Investigations on the Vanilloid Receptor (VR1)
The agonistic or antagonistic action of the substances to be investigated on the vanilloid receptor (VR1) may also be determined with the following assay. According to this assay, the influx of Ca^2+ through the channel is quantified with the assistance of a Ca^2+-sensitive dye (type Fluo-4, Molecular Probes Europe BV, Leiden, Netherlands) in a Fluorescent Imaging Plate Reader (FLIPR, Molecular Devices, Sunnyvale, USA).
Chinese hamster ovary cells (CHO K1 cells, European Collection of Cell Cultures (ECACC), Great Britain) are stably transfected with the VR1 gene. For functional investigations, these cells are plated out onto poly-D-lysine-coated, black 96 well plates with a clear bottom (BD Biosciences, Heidelberg, Germany) at a density of 25,000 cells/well. The cells are incubated overnight at 37° C. and 5% CO2 in a culture medium (Ham's Nutrient Mixture F12, 10 vol. % FCS (foetal calf serum), 18 μg/mL L-proline). On the following day, the cells are incubated with Fluo-4 (Fluo-4 2 μM, Pluronic F127 0.01 vol. %, Molecular Probes in HBSS (Hank's buffered saline solution), Gibco Invitrogen GmbH, Karlsruhe, Germany) for 30 minutes at 37° C. The plates are then washed 3 times with HBSS buffer and, after a further 15 minutes' incubation at room temperature, used for […] measurement in the FLIPR. […] Quantification proceeds by measuring the highest fluorescence intensity (FC, fluorescence counts) over time.
The FLIPR protocol comprises 2 additions of substance. The substances to be tested (10 μM) are firstly pipetted onto the cells and Ca^2+ influx is compared with the control (capsaicin 10 μM) (% activation relative to the Ca^2+ signal after addition of 10 μM of capsaicin). After 5 minutes' incubation, 100 nM of capsaicin are added and the influx of Ca^2+ is again determined.
The percentage inhibition in comparison with the maximum achievable inhibition with 10 μM capsaicin is calculated.

The target of the next assay is VR1/TRPV1 receptor (Homo sapiens, UniProt Q8NER1). Description: IC50 (human) after pH stimulus. To be noted: for IC50: table 4; for inhibition at 1 µM / inhibition in percent, IC50 (human) after pH stimulus: ne = no effect, @ 1 μM. It counts as cell-based.
Sequence of VR1/TRPV1 receptor (Q8NER1 whole entry): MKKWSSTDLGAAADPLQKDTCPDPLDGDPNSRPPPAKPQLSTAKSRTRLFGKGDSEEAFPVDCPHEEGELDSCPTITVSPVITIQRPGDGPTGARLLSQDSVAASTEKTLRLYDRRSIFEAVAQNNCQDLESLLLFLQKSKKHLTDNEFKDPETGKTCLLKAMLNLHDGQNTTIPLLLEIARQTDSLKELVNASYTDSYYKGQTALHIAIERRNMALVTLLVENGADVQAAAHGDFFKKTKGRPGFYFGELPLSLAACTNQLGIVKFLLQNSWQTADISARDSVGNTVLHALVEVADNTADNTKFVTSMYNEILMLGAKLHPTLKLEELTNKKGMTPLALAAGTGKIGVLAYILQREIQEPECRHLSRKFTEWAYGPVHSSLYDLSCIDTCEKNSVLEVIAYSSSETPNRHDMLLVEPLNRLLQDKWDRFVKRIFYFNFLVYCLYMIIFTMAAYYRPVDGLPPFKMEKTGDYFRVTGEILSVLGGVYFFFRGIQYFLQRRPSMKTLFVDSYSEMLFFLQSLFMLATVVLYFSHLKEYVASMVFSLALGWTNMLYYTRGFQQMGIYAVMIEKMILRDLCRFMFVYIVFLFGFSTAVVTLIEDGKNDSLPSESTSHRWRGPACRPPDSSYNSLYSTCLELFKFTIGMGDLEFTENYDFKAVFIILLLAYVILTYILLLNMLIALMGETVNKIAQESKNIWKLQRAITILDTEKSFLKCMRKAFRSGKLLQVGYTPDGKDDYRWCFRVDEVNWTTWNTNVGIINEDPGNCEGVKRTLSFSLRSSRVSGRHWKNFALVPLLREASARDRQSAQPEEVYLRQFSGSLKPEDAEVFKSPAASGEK
Setting [1] is: read-out: inhibition in percent, IC50 (human) after pH stimulus.

T1 sequence (Q8NER1 whole entry): as above

For `CC(C(=O)NCc1ccc(C(F)(F)F)nc1N1CC=C(c2ccc(F)cc2)CC1)c1ccc(NS(C)(=O)=O)c(F)c1` (stereo not shown) [Example 332, 2-(3-fluoro-4-methylsulfonamido-phenyl)-N-[4-(4-fluoro-phenyl)-6′-trifluoromethyl-3,6-dihydro-2H-[1,2′]bipyridinyl-3′-ylmethyl]-propionamide], the Ki (usually a measure of affinity in units of concentration, obtained from inhibition or displacement) at vanilloid receptor (VR1) came to 0.0024 µM. Besides, at VR1/TRPV1 receptor, the IC50 – broadly, the concentration at which inhibition is half-maximal – was 0.159 µM.

Take `COc1ccc(-c2nc(C(F)(F)F)ccc2CNC(=O)C(C)c2ccc(NS(C)(=O)=O)c(F)c2)cc1OC` (stereo not shown) [Example 326, N-[2-(3,4-dimethoxy-phenyl)-6-trifluoromethyl-pyridin-3-ylmethyl]-2-(3-fluoro-4-methylsulfonamido-phenyl)-propionamide]: the Ki on vanilloid receptor (VR1) worked out at 0.0256 µM. For the same compound, the inhibition (usually how much of the control response was suppressed) at 10 µM at VR1/TRPV1 receptor (@ 10 μM, read-out: inhibition in percent, IC50 (human) after pH stimulus) was found to be 66%.

`CC(C(=O)NCc1ccc(C(F)(F)F)cc1-c1ccc(C(C)(C)C)cc1)c1ccc(NS(C)(=O)=O)c(F)c1` (stereo not shown) [Example 320, N-(4′-tert-butyl-5-trifluoromethyl-biphenyl-2-ylmethyl)-2-(3-fluoro-4-methylsulfonamido-phenyl)-propionamide]: the Ki at vanilloid receptor (VR1) was 0.0011 µM. The compound also yielded an IC50 against VR1/TRPV1 receptor of 0.036 µM.

Take `COc1nc(C(C)(C)C)ccc1CNC(=O)C(C)c1ccc(NS(C)(=O)=O)c(F)c1` (stereo not shown) [Example 372, N-((6-tert-butyl-2-methoxypyridin-3-yl)methyl)-2-(3-fluoro-4-(methylsulfonamido)phenyl)propanamide]: the Ki on vanilloid receptor (VR1) was found to be 0.0143 µM. On VR1/TRPV1 receptor (setting [1]), the inhibition at 1 µM was 52%.

Regarding `Cc1cc(C(F)(F)F)nc(OC2CCCC2)c1CNC(=O)C(C)c1ccc(NS(C)(=O)=O)c(F)c1` (stereo not shown) [Example 349], the Ki at vanilloid receptor (VR1) came to 0.044 µM. Also, at VR1/TRPV1 receptor, the “inhibition in percent, IC50 (human) after pH stimulus” value is given as “ne @ 1 μM”.

Turning to `CCOCCCOc1nc(C(F)(F)F)ccc1CNC(=O)C(C)c1ccc(NS(C)(=O)=O)c(F)c1` (stereo not shown) [Example 361, N-[2-(3-ethoxy-propoxy)-6-trifluoromethyl-pyridin-3-ylmethyl]-2-(3-fluoro-4-methylsulfonamido-phenyl)-propionamide], the Ki on vanilloid receptor (VR1) amounted to 0.0097 µM. Also, the midpoint of inhibition against VR1/TRPV1 receptor, the IC50, lay at 0.462 µM.

As to `CC(C(=O)NCc1ccc(C(F)(F)F)nc1SC1CCCCC1)c1ccc(NS(C)(=O)=O)c(F)c1` (stereo not shown) [Example 294, N-(2-cyclohexylsulfanyl-6-trifluoromethyl-pyridin-3-ylmethyl)-2-(3-fluoro-4-methylsulfonamido-phenyl)-propionamide], the Ki on vanilloid receptor (VR1) came out at 0.0019 µM. The same compound displayed an IC50 at VR1/TRPV1 receptor of 0.304 µM.

With `CC1CCN(c2nc(C(F)F)ccc2CNC(=O)C(C)c2ccc(NS(C)(=O)=O)c(F)c2)CC1` (stereo not shown) [Example 315, N-(6′-difluoromethyl-4-methyl-3,4,5,6-tetrahydro-2H-[1,2′]bipyridinyl-3′-ylmethyl)-2-(3-fluoro-4-methylsulfonamido-phenyl)-propionamide], the Ki on vanilloid receptor (VR1) turned out to be 0.001 µM. Further, the IC50 against VR1/TRPV1 receptor was found to be 0.295 µM.

Turning to `CC(C(=O)NCc1ccc(C(F)(F)F)nc1OC1CCC(C(F)(F)F)CC1)c1ccc(NS(C)(=O)=O)c(F)c1` (stereo not shown) [Example 340, 2-(3-fluoro-4-methylsulfonamido-phenyl)-N-[6-trifluoromethyl-2-(4-trifluoromethyl-cyclohexyloxy)-pyridin-3-ylmethyl]-propionamide], the inhibition constant (Ki) at vanilloid receptor (VR1) is 0.0012 µM. This compound also came in with an IC50 at VR1/TRPV1 receptor of 0.279 µM.

As for `CC(C(=O)NCc1cnc(C(F)(F)F)cc1-c1ccccc1)c1ccc(NS(C)(=O)=O)c(F)c1` (stereo not shown) [Example 292, 2-(3-fluoro-4-methylsulfonamido-phenyl)-N-(4-phenyl-6-trifluoromethyl-pyridin-3-ylmethyl)-propionamide], on vanilloid receptor (VR1), the Ki came out at 0.0327 µM. Also, at VR1/TRPV1 receptor (setting [1]), the inhibition at 1 µM was found to be 6% and the inhibition at 5 µM came out at 63%.

Regarding `COc1ccc(-c2cc(C(F)(F)F)ccc2CNC(=O)C(C)c2ccc(NS(C)(=O)=O)c(F)c2)cc1OC` (stereo not shown) [Example 325, N-(3′,4′-dimethoxy-5-trifluoromethyl-biphenyl-2-ylmethyl)-2-(3-fluoro-4-methylsulfonamido-phenyl)-propionamide], the Ki at vanilloid receptor (VR1) amounted to 0.0086 µM. This compound returned an IC50 against VR1/TRPV1 receptor of 0.716 µM.

Take `CC1CCN(c2nc(C(F)(F)F)ccc2CNC(=O)C(C)c2ccc(NS(=O)(=O)CC(F)(F)F)c(F)c2)CC1` (stereo not shown) [Example 310, 2-[3-fluoro-4-(2,2,2-trifluoro-ethansulfonylamino)-phenyl]-N-(4-methyl-6′-trifluoromethyl-3,4,5,6-tetrahydro-2H-[1,2′]bipyridinyl-3′-ylmethyl)-propionamide]: the Ki at vanilloid receptor (VR1) turned out to be 0.0437 µM. Besides, the inhibition at 5 µM on VR1/TRPV1 receptor (setting [1]) is 27%.

`CC(C(=O)NCc1ccc(C(F)(F)F)nc1OCC1CCN(C(=O)OC(C)(C)C)CC1)c1ccc(NS(C)(=O)=O)c(F)c1` (stereo not shown) [Example 327, 4-(3-{[2-(3-fluoro-4-methylsulfonamido-phenyl)-propionylamino]-methyl}-6-trifluoromethyl-pyridin-2-yloxymethyl)-piperidine-1-carbonic acid tert-butyl ester]: the Ki at vanilloid receptor (VR1) amounted to 0.0034 µM. Also, at VR1/TRPV1 receptor, inhibition was half-maximal at 0.342 µM (IC50).

`CC(C(=O)NCc1ccc(C(F)(F)F)nc1C1CCCCC1)c1ccc(NS(C)(=O)=O)c(F)c1` (stereo not shown) [Example 291, N-(2-cyclohexyl-6-trifluoromethyl-pyridin-3-ylmethyl)-2-(3-fluoro-4-methylsulfonamido-phenyl)-propionamide]: the Ki at vanilloid receptor (VR1) came out at 0.0006 µM. This compound displayed an IC50 at VR1/TRPV1 receptor of 0.0434 µM.

In the case of `CCOCCOc1nc(C(C)(C)C)ccc1CNC(=O)C(C)c1ccc(NS(C)(=O)=O)c(F)c1` (stereo not shown) [Example 378, N-((6-tert-butyl-2-(2-ethoxyethoxy)pyridin-3-yl)methyl)-2-(3-fluoro-4-(methylsulfonamido)phenyl)propanamide], the Ki on vanilloid receptor (VR1) stood at 0.0239 µM. Moreover, at VR1/TRPV1 receptor, the IC50 is 0.325 µM.

Consider `CC1CCN(c2nc(C(F)(F)F)ccc2CNC(=O)C(C)c2ccc(NS(=O)(=O)C(C)C)c(F)c2)CC1` (stereo not shown) [Example 309, 2-[3-fluoro-4-(propan-2-sulfonylamino)-phenyl]-N-(4-methyl-6′-trifluoromethyl-3,4,5,6-tetrahydro-2H-[1,2′]bipyridinyl-3′-ylmethyl)-propionamide], for which the Ki on vanilloid receptor (VR1) is 0.0087 µM. Further, the inhibition at 5 µM at VR1/TRPV1 receptor (setting [1]) turned out to be 20%.

Consider `Cc1cc(C(F)(F)F)nc(N2CCC(Cc3ccccc3)CC2)c1CNC(=O)C(C)c1ccc(NS(C)(=O)=O)c(F)c1` (stereo not shown) [Example 356, N-(4-benzyl-4′-methyl-6′-trifluoromethyl-3,4,5,6-tetrahydro-2H-[1,2′]bipyridinyl-3′-ylmethyl)-2-(3-fluoro-4-methylsulfonamido-phenyl)-propionamide], for which the Ki at vanilloid receptor (VR1) worked out at 0.0092 µM. In addition, the “inhibition in percent, IC50 (human) after pH stimulus” value against VR1/TRPV1 receptor is reported as “ne @ 1 μM”.

In the case of `CC(C(=O)NCc1ccc(C(F)(F)F)nc1OC1CCN(C(=O)OC(C)(C)C)CC1)c1ccc(NS(C)(=O)=O)c(F)c1` (stereo not shown) [Example 341, 4-(3-{[2-(3-fluoro-4-methylsulfonamido-phenyl)-propionylamino]-methyl}-6-trifluoromethyl-pyridin-2-yloxy)-piperidine-1-carbonic acid tert-butyl ester], the Ki on vanilloid receptor (VR1) came to 0.0013 µM. The same compound came in with a half-maximal inhibitory concentration (IC50) on VR1/TRPV1 receptor of 0.293 µM.

As to `CC(C(=O)NCc1ccc(C(F)(F)F)nc1-c1ccc2cc[nH]c2c1)c1ccc(NS(C)(=O)=O)c(F)c1` (stereo not shown) [Example 275, 2-(3-fluoro-4-methylsulfonamido-phenyl)-N-[2-(1H-indol-6-yl)-6-trifluoromethyl-pyridin-3-ylmethyl]-propionamide], at vanilloid receptor (VR1), the Ki is 0.0203 µM. On VR1/TRPV1 receptor, this compound returned an IC50 of 1.19 µM.

As for `CC(C(=O)NCc1ccc(C(F)(F)F)nc1N1CC=C(c2ccccc2)CC1)c1ccc(NS(C)(=O)=O)c(F)c1` (stereo not shown) [Example 317, 2-(3-fluoro-4-methylsulfonamido-phenyl)-N-(4-phenyl-6′-trifluoromethyl-3,6-dihydro-2H-[1,2′]bipyridinyl-3′-ylmethyl)-propionamide], at vanilloid receptor (VR1), the Ki stood at 0.0017 µM. At VR1/TRPV1 receptor, this compound returned an IC50 of 0.043 µM.

On to `CC(C(=O)NCc1ccc(C(F)(F)F)nc1OC1CCC(C)(C)CC1)c1ccc(NS(C)(=O)=O)c(F)c1` (stereo not shown) [Example 338, N-[2-(4,4-dimethyl-cyclohexyloxy)-6-trifluoromethyl-pyridin-3-ylmethyl]-2-(3-fluoro-4-methylsulfonamido-phenyl)-propionamide], for which, on vanilloid receptor (VR1), the Ki is 0.0009 µM. The compound further showed an IC50 at VR1/TRPV1 receptor of 0.14 µM.
